Results taken from patent US7915270B2, “Oxazole ketones as modulators of fatty acid amide hydrolase” (The Scripps Research Institute, priority 2006, dated 2011).

How the values were obtained:
[1] = tested on: acute thermal nociception; conditions: rats; WO 02/087569; cited from earlier work
neuropathic pain = conditions: rats; WO 02/087569; cited from earlier work
[2] = rat; Kathuria 2003; cited from earlier work
thermal nociception [3] = conditions: cited from earlier work
anxiety = conditions: rats; Kathuria 2003; cited from earlier work
spasticity = conditions: Baker 2001; cited from earlier work
thermal nociception [4] = conditions: rats; WO 04/033652; cited from earlier work
FAAH = molecular target: T1, FAAH (Homo sapiens, UniProt O00519); conditions: reported; cited from earlier work
T1 sequence (O00519 1-579): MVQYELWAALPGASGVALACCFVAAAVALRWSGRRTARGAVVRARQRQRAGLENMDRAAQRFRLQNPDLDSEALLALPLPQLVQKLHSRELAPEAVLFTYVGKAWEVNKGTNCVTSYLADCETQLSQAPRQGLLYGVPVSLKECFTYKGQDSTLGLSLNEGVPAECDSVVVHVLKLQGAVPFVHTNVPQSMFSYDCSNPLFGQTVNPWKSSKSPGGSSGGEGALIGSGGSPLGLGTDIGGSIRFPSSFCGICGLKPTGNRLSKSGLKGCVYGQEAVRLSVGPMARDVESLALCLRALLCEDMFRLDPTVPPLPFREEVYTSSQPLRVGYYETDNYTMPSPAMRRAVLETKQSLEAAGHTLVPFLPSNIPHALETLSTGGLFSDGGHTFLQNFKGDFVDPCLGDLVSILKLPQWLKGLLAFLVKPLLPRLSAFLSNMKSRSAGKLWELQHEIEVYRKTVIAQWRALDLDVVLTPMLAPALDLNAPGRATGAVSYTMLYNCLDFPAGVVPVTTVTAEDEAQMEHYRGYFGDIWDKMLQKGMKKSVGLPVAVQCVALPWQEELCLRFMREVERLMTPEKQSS

[5] = Pharmacokinetic testing, intravenous bolus in rats; assay type: in vivo; conditions: rat, plasma, 2 mg/kg, male Sprague Dawley rats, 1 mg/mL in 2 mL/kg
Procedure: For each test compound, two male Sprague Dawley Rats (Charles River Laboratories; approx. 300 g body weight) were used. Animals were individually housed, provided food and water ad libitum, and were maintained on a 12 h light and dark cycle. Animals received from the vendor were surgically cannulated by the vendor with right jugular vein and left carotid artery catheters. Animals were acclimatized for at least 5 days after receipt from the vendor prior to investigations.
Animals received a bolus intravenous dose of the test compound at a dose of 1 mg/mL in a volume of 2 mL/kg via the right jugular vein catheter. The intravenous dosing solution was prepared in 55% pharmasolve, 20% cremophor, and […] physiological saline, or 100% saline adjusted to pH 8.0.
Following intravenous administration, blood was collected (sampled 0.35 mL per time point from the left carotid artery catheter) at 0.083, 0.25, 0.5, 1, 2, 4, and 6 h post-dose. Blood was collected into tubes containing EDTA and stored at 4° C. for not more than 2 h. The samples were centrifuged at 10,000 rpm in a micro-centrifuge for 5 min to obtain a plasma fraction. The plasma was stored at between −20 and −80° C. until processed for analysis. These samples were analyzed by LC-MS/MS to determine the plasma level of the compound.
Plasma level vs. time plots were created and WinNonlin (Pharsight Corp.) was used to analyze the data. A non-compartmental pharmacokinetic model was used to determine the pharmacokinetic parameters, including clearance, volume of distribution (Vd), and half-life (t1/2).

[6] = Solubility determination in water; assay type: physicochemical; conditions: thermodynamic from solid; in water at 5, 1 and 0.1 mg/mL; pH of resulting solutions 7-8.5
Procedure: Physical Chemical Properties
Solubility determinations were made by mixing the test compound in water at 5 mg/mL, 1 mg/mL, and 0.1 mg/mL concentrations. The pH of the resulting solutions was 7-8.5.

For Cc1nc(-c2ccccc2)c(-c2ccccc2)n1CCCCCCNC(=O)Oc1ccccc1F [BMS-1], the “analgesic effect in the Hargraves test” value [1] is listed as “analgesic effect” and the “analgesic effect in the Chung spinal nerve ligation model” value (neuropathic pain) is listed as “analgesic effect”.

In the case of NC(=O)c1cccc(-c2cccc(OC(=O)NC3CCCCC3)c2)c1 [URB-597], the “analgesic efficacy in the formalin test” value [2] is given as “analgesic efficacy”, the “analgesic efficacy in the hot plate test” value (thermal nociception [3]; rat, Kathuria 2003) is given as “analgesic efficacy” and the “efficacy in the zero plus maze model of anxiety” value (anxiety) is given as “efficacy”.

For CCCCCCCCCCCCCCCCS(=O)(=O)F [AM374], the “spasticity in CREAE mice” value (spasticity) is listed as “significantly reduce spasticity”.

For O=C(CCCCCCc1ccccc1)c1ncc(-c2ccccn2)o1 [OL-135], the “analgesic activity in the tail emersion test” value (thermal nociception [4]) is given as “analgesic activity”, the “inhibition of FAAH” value (FAAH) is given as “potent inhibitor” and the “analgesic activity in the hot plate test” value (thermal nociception [3]; rats, WO 04/033652) is given as “analgesic activity”.

Work on O=C(CCCCCCc1ccccc1)c1ncc(-c2ccco2)o1 [Comp. Ex. 2, 1-(5-Furan-2-yl-oxazol-2-yl)-7-phenyl-heptan-1-one, reference compound] yielded a Vd [5] of 22.9 L/kg, a clearance [5] of 3.8 L/h/kg and a half-life [5] of 3.49 h. It also gave a solubility [6] of less than 0.1 mg/mL.

Molecule O=C(CCCCCCc1ccccc1)c1ncc(-c2ccccn2)o1 [Comp. Ex. 1, 7-Phenyl-1-(5-pyridin-2-yl-oxazol-2-yl)-heptan-1-one, reference compound] has a Vd [5] of 27.3 L/kg, a clearance [5] of 5.9 L/h/kg and a half-life [5] of 3.23 h. It also gave a solubility [6] of less than 0.1 mg/mL.
